In US20250049775A1, “USE OF AMINOPYRAZOLE COMPOUNDS” (Intervet Inc., priority 2021, published 2025):

What was measured:
cIL-31 induced pruritus [1] = assay: canine interleukin-31 (cIL-31) induced pruritus model; assay type: in vivo, Beagle dog
Description: A canine interleukin-31 (cIL-31) induced pruritus model in the Beagle dog was used to inform on the dose of Compound 1 required to inhibit JAK1 signaling in vivo. The cIL-31 induced pruritus model is a relevant model of acute pruritus associated with atopic and allergic dermatitis in dogs. The magnitude of the suppression of cIL-31 induced pruritus by JAK inhibitors is predictive of their pruritus suppression in patients with allergic or atopic dermatitis As a measure of JAK-1 inhibition in vivo, and by extension the anticipated clinical efficacy of Compound 1, we evaluated Compound 1 in a relevant pharmacodynamic model and included a clinical reference.
(§1) Using a randomized, non-blinded, cross-over study design, Compound 1 (1 mg/kg body weight), Apoquel®, or placebo was dosed orally to laboratory Beagle dogs 2 h prior to a cIL-31 challenge (approximate Tmax of Compound 1 and Apoquel®).
In a second study using a randomized, non-blinded crossover design, several doses of Compound 1 were evaluated (0.5, 0.1 and 0.05 mg/kg body weight); Apoquel® and placebo treatments were also included.

Tmax after oral dosing = assay type: in vivo, Beagle dog; settings: laboratory Beagle dogs
Method: as §1

[2] = pilot Target Animal Safety (margin of safety) study, oral, 4 months; assay type: in vivo, Beagle dog
Method: A pilot Target Animal Safety study has been performed.
The objective of this study was to provide margin of safety information on Compound 1 at 1, 3 and 5 times the maximum recommended commercial dose (0.6 mg/kg body weight twice daily for two weeks and once daily thereafter (BID), or 1.2 mg/kg body weight daily (SID)) in 8-month-old Beagle dogs (at initiation of dosing), when given orally for 4 months (112 consecutive days). The clinical loading phase of 2 weeks for the BID treatment schedule was prolonged to 6 weeks in this study in accordance with VICH GL43 (3 times the proposed duration).
The test item was the final formulation blend of the investigational veterinary product, filled into gelatine capsules for dose administration. The control article was blank (empty) gelatine capsules.
In addition to that, a 4-month pilot target animal safety study has been conducted in 6-months old dogs utilizing either doses of 0.6, 1.8 or 3.0 mg/kg twice daily over the first 6 weeks (loading phase) and reducing to once daily thereafter (BID), or a dose of 6.0 mg/kg administered once daily over the whole study period (SID) compared to a control group, using 3 males and 3 females per group (Robertson, 2021).

[3] = cited from earlier work
cIL-31 induced pruritus [4] = settings: prior treatment, Beagle dogs, Gonzales et al. 2016; cited from earlier work
[5] = test system: pruritus and lesions of allergic or atopic dermatitis; settings: cited from earlier work
[6] = dogs with allergic or atopic dermatitis, Cosgrove et al. 2013

For COc1cc(Nc2nn([C@H]3COCC[C@@H]3C#N)cc2C(N)=O)cc(F)n1 (single isomer, unassigned) [Compound 1, 1-((3R,4S) or (3S,4R)-4-cyanotetrahydro-2H-pyran-3-yl)-3-((2-fluoro-6-methoxypyridin-4-yl)amino)-1H-pyrazole-4-carboxamide)], which “suppression of cIL-31 induced pruritus” value (cIL-31 induced pruritus [1]; 0.05 mg/kg body weight, second study) is on record?
Its value is “not”.

And the “suppression of cIL-31 induced pruritus” value (cIL-31 induced pruritus [1]; 0.1 mg/kg body weight, second study)?
Its value is “not”.

And the “suppression of cIL-31 induced pruritus” value (cIL-31 induced pruritus [1]; 0.5 mg/kg body weight, second study)?
Its value is “significantly suppressed”.

And the “magnitude of effect compared with Apoquel” value (cIL-31 induced pruritus [1]; 0.5 mg/kg, second study)?
The value was “similar”.

And the “suppression of cIL-31 induced pruritus” value (cIL-31 induced pruritus [1]; 1 mg/kg body weight oral, 2 h prior to cIL-31 challenge, observed 2 h)?
Its value is “significantly suppressed”.

And the Tmax (Tmax after oral dosing; dog, in vivo, 1 mg/kg body weight, read-out: approximate Tmax)?
The Tmax was ~2 h.

And the “changes in body weight, food consumption, ophthalmic examinations, electrocardiology or blood pressure” value ([2]; all doses, male and female dogs, oral, 4 months)?
Its value is “no changes”.

What about the tolerability ([2]; daily oral, up to 5 times the recommended maximum commercial dose of 1.2 mg/kg body weight (BID or SID), 6-month-old beagle dogs) of the same molecule?
The tolerability was “well tolerated”.

And the clinical findings ([2]; overdosed animals)?
The clinical findings was “Minor clinical findings (e.g., interdigital cysts, conjunctivitis, gingivitis, diarrhoea)”.

What about the “susceptibility to minor infections” value ([2]; recommended maximum commercial dose) of the same molecule?
Its value is “no increased susceptibility to minor infections”.

And the “susceptibility to minor infections” value ([2]; repeated overdoses)?
Its value is “increased susceptibility to minor infections”.

What about the overall safety conclusion ([2]; young dogs) of the same molecule?
The overall safety conclusion was “safe for use in young dogs”.

What does the source list for oclacitinib maleate [Apoquel]?
dogs requiring euthanasia ([3]; after 4 months, 0, 1, 3, 5 times 0.6 mg/kg twice per day, dogs about 6 months old): two dogs required euthanasia; age dependence of adverse clinical effects ([3]; dog, in vivo): most severe adverse clinical effects were observed in dogs aged less than one year; deaths from infection secondary to immunosuppression ([3]; including one death 28 days after discontinuation): two deaths; adverse finding attributed to treatment-related immunosuppression ([3]; several dogs in the mid and high dose groups): clinical demodicosis; approximate Tmax (Tmax after oral dosing): ~2 h; inhibition of cIL-31 induced pruritic response (cIL-31 induced pruritus [4]): can be inhibited; effect on lesions [5, 6]: reduces lesions; effect on pruritus [5, 6]: rapid amelioration of pruritus; haematology effect ([5]; higher doses, FOI Summary NADA 141-345, Gonzales et al. 2014): reduction in hematocrit, hemoglobin, and reticulocyte counts
